Reference: patent publication US7214494B2, “Method of screening for substance preventing or treating diseases in association with malfunction of IL-6 family cytokine receptor malfunction” (Saten Pharmaceutical Co., Ltd., priority 2000, dated 2007)

Test system: arthritis in gp130^F759/F759 mice
Assay: Screening test for anti-arthritis agents in gp130F759/F759 mice
Assay type: in vivo, mouse
Settings: for arthritis score: gp130^F759/F759 mice developing arthritis, methotrexate 0.4 mg/kg orally five days in a week from age of 9 months
Procedure: gp130^F759/F759 mice or mice obtained by backcrossing of the gp130^F759/F759 mice (gp130^F759/F759-related mice) were used as a model mouse. A test compound of antirheumatic drugs such as bucilamine and methotrexate, nonsteroidal anti-inflammatory drugs such as diclofenac, or steroidal drugs such as dexamethasone was administered. The administration was conducted before the onset of immune disorders or arthritis for screening of prophylactic drugs, whereas after the observation of visible arthritis for screening of therapeutic drugs. The following is to illustrate the screening test for anti-arthritic agents using methotrexate as a test compound, and screening tests for other compounds would be conducted according to a similar manner to the following.
Methotrexate was administered orally at a dose of 0.4 mg/kg to the mice at the aged of 9 months for five days in a week. […] The severity of arthritis was scored based on restricted range of motion, swelling and flare of digit joints, and the presence or absence of rigidity. The mice whose arthritis conditions were observed constantly for two weeks or more were estimated as developed animal, and incident and severity were determined with time course.

`CN(Cc1cnc2nc(N)nc(N)c2n1)c1ccc(C(=O)N[C@@H](CCC(=O)O)C(=O)O)cc1` [methotrexate] was tested, and the arthritis score (aged 48 weeks (12-month-old), control 4.33±1.86) was 1.33±0.33, the arthritis score (aged 53 weeks, control 4.67±0.67) was 0.67±0.33 and the “effect on arthritis in the mouse model” value (gp130^F759/F759 mice, 0.4 mg/kg orally) was “inhibits the arthritis”.
